Laboratory results: patent publication US9676749B2, “Compositions and methods for cancer detection and treatment” (Ohio State Innovation Foundation, priority 2009, dated 2017)
“Also recorded” adds a separate entry of the source. Like-named read-outs stand apart in the source and are kept apart here.

What was measured:
[1] = test system: symmetrical dimethylation (S2Me) of histone H4R3 in glioma cell line U1242; test: Symmetric dimethyl H4R3 (S2Me-H4R3) content in glioma/astrocytoma cell lines by confocal microscopy and flow cytometry; assay type: cell-based, human; conditions: for S2Me-H4R3 in astrocytoma cell lines, single agent or combined: CMP5 at 25 uM, HDAC inhibitor TSA; for S2Me-H4R3 content, flow cytometric assay (FIG. 18): U1242 and U251, TSA (25 nM) and/or CMP5 (25 uM); for H4R3 symmetric 2Me arginine methylation (S2Me): U1242, 8 hour incubation, confocal microscopy
Description: (§1) Confocal microscopy was used with mAbs specific for symmetrical dimethylation (S2Me) of histone H4R3. Positive control for loss of PRMT5 activity was provided by treatment of U1242 cells with a PRMT5-specific siRNA used in above experiments. (B) Cell proliferation was assessed in replicate cultures incubated in DMSO and compounds 1-8.
Initial Screening experiments were performed utilizing monoclonal antibodies specific for H4R3 symmetric dimethyl arginine and confocal microscopy generated images evaluating H4R3 methylation. Controls included scrambled and SiRNA specific for PRMT5 to verify knockdown and loss of H4R3 methylation. […] Findings similar to PRMT5-specific SiRNA treatment.
Recent work reported by Pal et al has shown that PRMT5 associates with SWI/SNF chromatin remodeling complexes along with other co-repressor molecules like HDAC2. […] We utilized a flow cytometric assay to evaluate symmetric dimethyl H4R3 (S2Me-H4R3) content and confocal microscopy to verify loss of methylation status.
(§2) The biochemical association of PRMT5 and HDAC2 with repressive chromatin remodeling complexes and cooperative enzyme kinetics has been previously described. […] As a control, we utilized a flow cytometric assay to evaluate symmetric dimethyl H4R3 (S2Me-H4R3, FIG. 18) content and confocal microscopy (not shown) to verify decrease of methylation status. We used Aimexin V/PI staining and flow cytometry to examine apoptosis (below). […] We are presently performing dose response experiments to examine whether this activity can be improved. In data not shown, we can achieve similar results with lower doses of CMP5 (10 uM). […] Inhibition PRMT5 with CMP5 and HDAC enzymes (at 10 fold lower concentrations) leads to synergistic induction of apoptosis of astrocytoma cell lines.

U1242 cell line = test: Cell proliferation of GBM cells; assay type: cell-based, human; conditions: for cell proliferation / anti proliferative activity: GBM cells (U1242), vs DMSO control
Description: as §1
Preliminary enzymatic activity assays are currently underway and will be provided as an update during submission of supplementary materials.

human pure PRMT5 enzyme = human pure PRMT5 enzyme (Homo sapiens, UniProt O14744); test: In vitro methylation assay; assay type: biochemical; conditions: FIG. 21 left
Description: SAM was omitted for the substrate control, and human pure PRMT5 enzyme was omitted for blank control. (right) Jeko and Mino cells were treated by 10 uM of BLL36 for 24 hr, viability was evaluated by flow cytometry.

purified PRMT1 = purified PRMT1 (Homo sapiens, UniProt Q99873); conditions: 100-500 uM, one hour at 37 C, 3 replicate experiments, p<0.0001
Source text: (§3) Do achieve this, we performed enzyme inhibition assays using purified PRMT1 (a type I PRMT enzyme) and purified PRMT5 (a type II PRMT enzyme).
(§4) The next step required studies to explore whether CMP5 was capable of selectively inhibiting a type II PRMT enzyme. Type I PRMT enzymes are involved in transcriptional activation (asymmetric dimethylation at H4R3) and type II PRMT enzymes regulates transcriptional repression (symmetric dimethylation or S2Mc at H4R3). To achieve this goal, we performed enzyme inhibition assays using purified PRMT1 (type I PRMT enz) and purified PRMT5 (type II PRMT enz). Assays were performed utilizing 2 methods. The first utilized methods described previously by Zhao et at (Nat Struct Mol Biol. 2009), where 1 ug of H4 (Roche) was used as substrate and 2 uCi of S-adenosyl-L-methyl-^3H-methionine (^3H-SAM; Amersham) as the methyl donor in the presence or absence of 100-500 uM of CMP5 was incubated in HMTase buffer for 3 h at 37° C. Reaction mixtures were spotted on Whatman P-81 filter paper and washed to remove unincorporated [^3H]SAM. Methylated peptides were detected by scintillation counting. […] The second method utilized a methyltransferase activity assay to distinguish if differential inhibitory activity of CMP5 existed against the type I PRMT1 vs. the type II enzyme PRMT. The methyltransferase assay we used (Amsbio inc) utilized purified PRMT5 and PRMT1 enzyme preparations and tested for methylation of Histone H4 at arginine 3 (H4R3). SAM was incubated with a sample containing substrate H4 peptide, different concentrations of methyltransferase enzymes (PRMT5 or PRMT1), in presence or absence of CMP5 (100-500 uM) for one hour at 37° C. Fluorescently labeled SAM tracer was added followed by anti-SAM antibody that produces a change in fluorescent polarization that can be measured using a fluorescence reader.

purified PRMT5 [2] = target: T1, purified PRMT5 (Homo sapiens, UniProt O14744)
Source text: as §3, §4

[3] = test system: astrocytoma cell lines (U1242 and U251); test: Apoptosis of GBM/astrocytoma cell lines (Annexin V/PI, flow cytometry); assay type: cell-based, human; conditions: single agents, not shown
Source text: (B) inhibition of migration at 12 hrs after addition of siRNA to knock down PRMT5 vs. Scramble siRNA control.
as §2

purified PRMT5 [4] = target: T1, purified PRMT5; conditions: 100-500 uM CMP5, H4 substrate, 3H-SAM, 3 h at 37 C; ±7.8%, p<0.001, data not shown
Description: as §4, with “The methyltransferase assay we used (Amsbio inc) utilized purified PRMT5 and PRMT1 enzyme preparations and tested for methylation of Histone H4 at arginine 3 (H4R3). SAM was incubated with a sample containing substrate H4 peptide, different concentrations of methyltransferase enzymes (PRMT5 or PRMT1), in presence or absence of CMP5 (100-500 uM) for one hour at 37° C.” left out

[5] = compound 5 at 20, 30, 40, 50 and 100 uM, 48 hours

T1 sequence (O14744 whole entry): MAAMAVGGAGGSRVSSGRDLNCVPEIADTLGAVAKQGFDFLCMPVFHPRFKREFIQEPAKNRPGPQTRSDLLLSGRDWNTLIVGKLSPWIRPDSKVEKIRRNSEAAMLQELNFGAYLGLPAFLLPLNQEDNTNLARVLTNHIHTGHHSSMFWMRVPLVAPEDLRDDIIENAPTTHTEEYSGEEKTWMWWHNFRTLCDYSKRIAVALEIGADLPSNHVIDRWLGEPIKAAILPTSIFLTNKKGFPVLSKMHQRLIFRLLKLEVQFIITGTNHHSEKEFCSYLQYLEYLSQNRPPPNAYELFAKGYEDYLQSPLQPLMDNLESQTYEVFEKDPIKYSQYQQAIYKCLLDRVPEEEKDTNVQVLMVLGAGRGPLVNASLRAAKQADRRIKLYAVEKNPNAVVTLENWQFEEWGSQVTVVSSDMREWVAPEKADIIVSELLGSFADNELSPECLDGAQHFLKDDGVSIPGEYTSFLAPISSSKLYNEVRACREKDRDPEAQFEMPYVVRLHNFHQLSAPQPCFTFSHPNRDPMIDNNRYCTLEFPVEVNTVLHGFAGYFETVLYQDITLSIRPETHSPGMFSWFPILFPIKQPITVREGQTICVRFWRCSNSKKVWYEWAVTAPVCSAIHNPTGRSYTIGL
T1 sequence (Q9BQA1 whole entry partner): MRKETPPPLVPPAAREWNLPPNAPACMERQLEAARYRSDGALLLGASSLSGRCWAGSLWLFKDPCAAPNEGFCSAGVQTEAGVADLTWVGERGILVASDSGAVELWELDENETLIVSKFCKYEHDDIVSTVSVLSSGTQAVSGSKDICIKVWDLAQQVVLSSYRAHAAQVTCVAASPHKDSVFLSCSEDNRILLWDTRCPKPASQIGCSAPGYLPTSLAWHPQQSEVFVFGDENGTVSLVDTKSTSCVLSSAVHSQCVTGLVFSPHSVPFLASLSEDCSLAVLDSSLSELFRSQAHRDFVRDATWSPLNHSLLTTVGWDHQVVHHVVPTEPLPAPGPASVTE
Chain of purified PRMT1 (Q99873 whole entry, species assumed): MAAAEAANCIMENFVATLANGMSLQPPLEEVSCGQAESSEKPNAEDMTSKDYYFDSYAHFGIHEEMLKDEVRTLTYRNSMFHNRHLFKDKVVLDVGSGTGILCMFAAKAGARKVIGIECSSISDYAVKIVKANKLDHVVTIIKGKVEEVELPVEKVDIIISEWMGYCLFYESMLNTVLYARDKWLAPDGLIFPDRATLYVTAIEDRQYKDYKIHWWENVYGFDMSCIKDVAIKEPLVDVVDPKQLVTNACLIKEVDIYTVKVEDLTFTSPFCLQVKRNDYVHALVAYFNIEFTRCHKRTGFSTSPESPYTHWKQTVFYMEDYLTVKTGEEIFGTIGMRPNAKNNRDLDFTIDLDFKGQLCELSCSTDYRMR
Chain of human pure PRMT5 enzyme (O14744 whole entry): as the sequence (O14744 whole entry) above
Chain of human pure PRMT5 enzyme (Q9BQA1 whole entry partner): as the sequence (Q9BQA1 whole entry partner) above

concentration that decreased methyltransferase activity of PRMT5 (human pure PRMT5 enzyme) [µM]	inhibition of PRMT1 activity (purified PRMT1)	inhibition of PRMT1 activity (purified PRMT1; listed as CMP5)	inhibition of PRMT5 activity (purified PRMT5 [2]; 100-500 uM, one hour at 37 C, 3 replicate experiments, p<0.0001)	IC50 (purified PRMT5 [2]; lead compound of the initial screen)	reduction of methyltransferase activity (purified PRMT5 [4]) [%]	Compound	S2Me-H4R3 in astrocytoma cell lines, single agent or combined [1]	S2Me-H4R3 content, flow cytometric assay (FIG. 18) [1]	cell proliferation / anti proliferative activity (U1242 cell line)	cell proliferation / anti proliferative activity (U1242 cell line; listed as CMP5)	cellular proliferation (absolute cell numbers), titration (U1242 cell line; [5])	concentration of compound 5 giving loss of S2Me status of H4R3 on co-treatment with HDACi TSA ([1]; GBM cell lines, co-treated with TSA) [µM]	fold lower concentration of compound 5 for loss of S2Me H4R3 on co-treatment with TSA ([1]; GBM cell lines, co-treated with TSA (75, 100 nM)) [fold]	H4R3 symmetric 2Me arginine methylation (S2Me) [1]	H4R3 symmetric 2Me arginine methylation (S2Me) ([1]; listed as CMP5)	degree of H4R3 methylation, titration [1, 5]	concentration of CMP5 required for reduced methylation, single agent ([1]; original dose response experiments) [µM]	apoptosis of GBM cell lines [3]
						CC(/C=C/C(=O)NO)=C\[C@@H](C)C(=O)c1ccc(N(C)C)cc1 [TSA, Trichostatin A, reference compound]	unchanged	no change in S2Me-H4R3										
100	not PRMT1 activity	not PRMT1 enzymatic activity	selectively inhibiting PRMT5 activity	micromolar (uM) ranges	55	CCn1c2ccccc2c2cc(CNCc3ccccn3)ccc21 [Compound 5]	unchanged	no change in S2Me-H4R3	most efficacy; also recorded: reduced cell proliferation	antiproliferative effect	a dose response was seen	10	> 10	most efficacy; also recorded: best activity; also recorded: reduced; also recorded: capable of inhibiting H4R3 symmetric 2Me arginine methylation	loss of symmetric dimethyl-H4R3	a dose response was seen	100	promote apoptosis of GBM cell lines
